Results published in patent US20220299532A1, “CORRECTING PROTEIN MISFOLDING IN DIABETES” (Sanford Burnham Prebys Medical Discovery Institute, priority 2019, published 2022).
Residues, ends and D or L forms follow the SMILES beside them. *: point of attachment. Cbz = O=C(OCc1ccccc1)*

What was measured:
mouse pancreatic islets = test: Proinsulin disulfide-linked / HMW complexes in murine islets, SDS-PAGE immunoblot (CCI-17); type: cell-based; conditions: islets of WT male mice on regular diet, increasing concentrations of DTT in culture
Description: Mouse pancreatic islet isolation: Mice were euthanized by CO2 narcosis as per an approved institutional animal protocol. The pancreas was rapidly excised, minced in ice-cold PBS, and digested in 4 mL of Collagenase P (Roche) 1.5 mg/mL in Hank's Balanced Salt Solution containing calcium and magnesium, in a shaking water bath for 30 min at 37° C. The digestion was terminated in 40 mL ice-cold PBS (—Ca/—Mg) and the digested tissue washed twice in this buffer. The sedimented tissue digest was then overlaid with 3 mL Histopaque-1077 and further overlayed with 6 mL ice cold PBS (—Ca/—Mg) before centrifugation (3000 rpm for 20 min at 10° C. with no brake) and transfer of the midlayer of the Histopaque gradient to a 15 ml tube for two further washes in ice-cold PBS. Finally, the sedimented tissue was transferred to a petri dish in ice-cold RPMI-1640 buffer and islets hand-picked to purity. In experiments involving drug or compound treatment, the islets were finally recovered overnight in RPMI-1640 supplemented with 10% fetal bovine serum (FBS), 10 mM HEPES pH 7.35, 1 mM sodium pyruvate and 0.05 mM beta-mercaptoethanol, in a humidified 5% CO2 incubator at 37° C. For some experiments, islets were snap frozen in liquid nitrogen and stored frozen prior to analysis.
(§1) Lysis of cells or islets for SDS-PAGE and electrotransfer: After removal of media, cells were washed once with ice-cold PBS and lysed in RIPA buffer (10 mM Tris pH 7.4, 150 mM NaCl, 0.1% SDS, 1% NP40, 2 mM EDTA) plus protease inhibitor/phosphatase inhibitor cocktail (Sigma-Aldrich) or directly in Laemmli gel sample buffer. Lysates in RIPA buffer were immediately spun at 10,000 rpm for 10 min at 4° C. and the supernatants analyzed further or stored at −80° C. Islets that had been quick frozen were placed on ice and RIPA buffer containing protease inhibitor cocktail and phosphatase inhibitor was added. Lysis was carried out by gently pipetting or by syringe through a 30G needle. Total protein concentration in the lysate was determined by BCA or Bramhall assay, and 5-10 μg of samples prepared in SDS sample were resolved by SDS-PAGE in 4-12% Bis-Tris NuPAGE gels (Invitrogen) at 200 V for 30 min. Nonreducing gels were incubated in a solution containing 20 mM dithiothreitol (DTT) for 10 min at room temperature prior to electrotransfer.
(§2) Immunoblotting: Transfer membranes were rinsed once in TBST (15 mM Tris, 150 mM NaCl, 0.1% Tween-20), blocked using TST plus 5% BSA for 1 h at room temperature, and then washed four times (5 min each) in TBST. Primary antibody and secondary antibodies were diluted in TBST and each of […] incubations was 1 h at room temperature followed by 4 washes in TBST. On occasion, primary antibodies were incubated overnight at 4° C. Secondary antibodies were all HRP-conjugates. Development of immunoblots used enhanced chemiluminescence (Immobilon, Millipore, or SuperSignal West Pico PLUS, Thermo Fisher Scientific) with images captured using a Fotodyne gel imager.
Islet Isolation: Islets were isolated by collagenase P (Roche) perfusion as described following by histopaque-1077 (Sigma-Aldrich, Inc. St. Louis) gradient purification. Islets were handpicked and studied directly or after overnight culture in RPMI 1640 medium (Corning 10-040-CV) supplemented with 10% FBS, 1% penicillin/streptomycin, 100 μg/m1 primocin, 10mM Hepes, and 1mM sodium pyruvate.
Islet Western Blotting: Isolated islets were lysed in RIPA buffer (10 mM Tris pH 7.4, 150 mM NaCl, 0.1% SDS, 1% NP-40, 2mM EDTA) with protease and phosphatase inhibitors (Fisher Scientific) on ice for 10 min and lysates were collected after centrifugation at 4° C. for 10 min at 12000 g. Samples were prepared in Laemmli sample buffer without (non-reducing) or with (reducing) 5% β-mercaptoethanol. After boiling for 5 min, samples were analyzed by SDS-PAGE (4-12% Bis-Tris gel, (Bio-Rad Laboratories, Inc.)) and transferred to nitrocellulose membranes (Bio-Rad Laboratories, Inc.). […]

[1] = tested on: murine embryonic fibroblasts (MEFs); test: Human proinsulin delivered by adenovirus to murine embryonic fibroblasts, non-reducing SDS-PAGE; type: cell-based, mouse; conditions: MEFs infected with Ad-hProins, increasing concentrations of DTT
Description: Generation and culture of primary mouse embryonic fibroblast (MEF): WT C57BL/6 d14 embryos were isolated under sterile conditions and placed in 100 mm cell culture dish containing PBS. Placental and other maternal tissues were removed and the embryos were washed three times with PBS. Heads and visceral organs were removed. The heads were used for genotyping. Embryos were finely minced with a sterile razor blade and treated with 1 ml of 0.25% trypsin/EDTA (Corning) for 40 min at 37° C. DMEM medium (Corning) supplemented with 10% FBS, 1% penicillin/streptomycin, 100 μg/ml primocin and 1 mM sodium pyruvate was added to quench trypsin activity. Tissue homogenate was subsequently disaggregated by repeated pipetting, and further centrifuged to collect the fibroblast cell pallet. Cells were plated in 100 mm culture dish in DMEM medium at 37° C. in a cell culture incubator under 5% CO2. To prevent mycoplasma, bacterial, and fungal contamination, primary MEFs were cultured in medium containing 100 μg/ml primocin (InvivoGen) and used for experiments prior to passage #5.
To study the impact of PDIA1 in the absence of C peptide processing in a more manipulatable system, the inventors analyzed human proinsulin expression delivered by adenovirus to murine embryonic fibroblasts (MEFs) that were co-infected with WT PDIA1 or PDIA1 with 4 Cys to Ser mutations in the two vicinal catalytic PDI sites. […]

INS1E cells [2] = test: Proinsulin disulfide-linked complexes in INS1E cells, nonreducing/reducing SDS-PAGE and immunoblotting (mAb CCI-17); type: cell-based, rat
Description: HEK293T human cells lines were cultured in DMEM supplemented with 10% FBS and penicillin/streptomycin.
as §1, with “Islets that had been quick frozen were placed on ice and RIPA buffer containing protease inhibitor cocktail and phosphatase inhibitor was added.” left out, “Total protein concentration in the lysate was determined by BCA or Bramhall assay, and 5-10 μg of samples prepared in SDS sample were resolved by SDS-PAGE in 4-12% Bis-Tris NuPAGE gels (Invitrogen) at 200 V for 30 min.” left out
The lane was then laid horizontally on top of a 10% SDS-polyacrylamide resolving gel and sealed in place in stacking gel. A single-tooth comb was introduced at one end of the stacking gel to introduce a one-dimensional reduced sample of proinsulin containing cell lysate (which runs as proinsulin monomer). The gel was run at 200 V for 45 mins in Tris-Glycine buffer pH 8.8 with electrotransfer as described above.
as §2

293T cells = test: Disulfide-linked complexes of recombinant human proinsulin in 293T cells, nonreducing SDS-PAGE immunoblot (mAb 20G11); type: cell-based; conditions: overnight PERK inhibitor
Description: (§3) Cell and islet culture: Rat pancreatic beta cell lines INS1E and INS-832/13 were cultured in RPMI-1640 medium supplemented with 10% FBS, 10 mM HEPES pH 7.35, 1 mM sodium pyruvate, penicillin/streptomycin and 0.05 mM beta-mercaptoethanol. HEK293T human cells lines were cultured in DMEM supplemented with 10% FBS and penicillin/streptomycin.
(§4) Transfection of cells: 293T cells, INS1E cells, and INS-832/13 cells at 70-80% confluency were transiently transfected using Lipofectamine 2000 (ThermoFisher) as per the manufacturer's instructions. A medium change was performed 5 h post-transfection and the cells were lysed at 36 or 48 h.
as §1, with “Islets that had been quick frozen were placed on ice and RIPA buffer containing protease inhibitor cocktail and phosphatase inhibitor was added. Lysis was carried out by gently pipetting or by syringe through a 30G needle.” left out, “Nonreducing gels were incubated in a solution containing 20 mM dithiothreitol (DTT) for 10 min at room temperature prior to electrotransfer.” left out

human islets = test: Proinsulin disulfide-linked complexes in human islets, SDS-PAGE immunoblot (mAb 20G11); type: cell-based; conditions: overnight PERK inhibitor
Description: Human pancreatic islets: Human islets were obtained either from Prodo Labs, or from the NIDDK-funded Integrated Islet Distribution Program (IIDP; NIH UC4-DK098085) and maintained in a humidified 5% CO2 incubator at 37° C. Human islets were cultured ex vivo for up to 96 h in Prodo PIM(R) islet19 specific tissue culture medium supplemented with 10% FBS and Prodo PIM(G) glutamine/glutathione supplement, plus penicillin/streptomycin.
as §1, with “Nonreducing gels were incubated in a solution containing 20 mM dithiothreitol (DTT) for 10 min at room temperature prior to electrotransfer.” left out

INS1E cells [3] = test: Intracellular proinsulin distribution in INS1E cells, indirect immunofluorescence; type: cell-based, rat; conditions: overnight PERK inhibitor, anti-proinsulin GS-9A8 and anti-calnexin
Description: Immunohistochemistry/immunocytochemistry: Pancreatic paraffin sections were de-paraffinized with Citrisolv (Fisher Scientific) for 5 min at room temperature, re-hydrated in a series of 8 min ethanol incubations: 100%, 95%, 70%, and distilled water. Antigen retrieval was carried out using Retrieve-ALL 1 Universal pH 8 (BioLegend) and slides were heated in a microwave, cooled for 30 min at room temperature, and incubated once with PBS for 5 min. Blocking was performed in 150 μL blocking buffer (3% BSA prepared in TBS and 0.2% Triton X-100) per section for 2 h at room temperature. Blocking buffer was removed and 150 μL per section of primary antibody appropriately diluted in TBS plus 3% BSA and 0.2% Tween-20 was incubated overnight at 4° C. The primary antibody was removed and the slide washed twice with TBS/0.1% Tween-20. Then, 150 μL secondary antibody (1:500 dilution, prepared in antibody buffer) per section was incubated for 1 h at room temperature. Slides were washed thrice with TBS/0.1% Tween-20, mounted with a drop of prolong gold anti-fade reagent with DAPI (ThermoFisher) and a cover slip affixed. For immunocytochemistry, INS1E cells were grown in an 8-well Millicell® EZ SLIDE (Millipore-SIGMA). Cells were allowed to reach 60-80% confluency before addition of PERK inhibitor (PERKi) or vehicle. […]

INS-832/13 β-cell line = test: Detection of myc-tagged two-cysteine proinsulin mutants in INS-832/13 cells, nonreducing SDS-PAGE immunoblot; type: cell-based, rat; conditions: MG132 10 μg/mL for 7 h
Description: as §3, §4
as §1, with “Islets that had been quick frozen were placed on ice and RIPA buffer containing protease inhibitor cocktail and phosphatase inhibitor was added. Lysis was carried out by gently pipetting or by syringe through a 30G needle.” left out, “Nonreducing gels were incubated in a solution containing 20 mM dithiothreitol (DTT) for 10 min at room temperature prior to electrotransfer.” left out

Compound: O[C@H](CS)[C@H](O)CS (racemic) [dithiothreitol]
- proinsulin monomer and dimer (mouse pancreatic islets): increasing amounts of the proinsulin monomer and residual disulfide-linked dimer
- reduced proinsulin [1]: increased the amount of reduced proinsulin

Compound: Cc1cccc(CC(=O)N2CCc3c2ccc(-c2cn(C)c4ncnc(N)c24)c3F)n1 [PERK inhibitor, GSK2656157]
- disulfide-linked proinsulin complexes as share of all recovered proinsulin (INS1E cells [2]; INS1E cells treated with PERK inhibitor, 2D nonreducing/reducing SDS-PAGE): 87%
- intracellular proinsulin in disulfide-linked complexes with increasing time of exposure (INS1E cells [2]; INS1E cells, PERK inhibitor for last 0, 5, 10 or 20 h): the majority of intracellular proinsulin accumulated in disulfide-linked complexes
- intracellular accumulation of proinsulin (INS1E cells [2]; INS1E cells, PERK inhibitor overnight (GSK2656157, 2 μM) vs vehicle DMSO): dramatically increased
- insulin content (INS1E cells [2]; INS1E cells, PERK inhibitor up to 20 h): decreased insulin content
- proinsulin secretion (INS1E cells [2]; INS1E cells, PERK inhibitor up to 20 h, media): decreased proinsulin secretion
- secretion of proinsulin to the medium (INS1E cells [2]; INS1E cells, overnight PERK inhibitor, nonreducing SDS-PAGE of media): not increased
- disulfide-linked proinsulin dimers and higher-order complexes of recombinant human proinsulin (293T cells): accumulated to a dramatically higher level
- higher order disulfide-linked proinsulin complexes (human islets; nonreducing SDS-PAGE): further increase in higher order disulfide-linked complexes
- total islet proinsulin (human islets; reducing SDS-PAGE): increase in total islet proinsulin
- intracellular proinsulin distribution (INS1E cells [3]): shifted its distribution to the classic impacted-ER phenotype

Compound: CC(C)C[C@@H](C=O)NC(=O)[C@H](CC(C)C)NC(=O)[C@H](CC(C)C)NC(=O)OCc1ccccc1 [MG132] (Cbz-Leu-Leu-Leu-aldehyde)
- detection of myc-tagged proinsulin mutants (keep-B7/A7, keep-A6/A11, keep-B19/A20) (INS-832/13 β-cell line): myc-tagged proinsulin monomers were detected in all cases
